Experiments:
Format in all cases: in vivo
[1] = system: redroot pigweed (Amaranthus retroflexus, AMARE); assay: Pre-emerge test, greenhouse herbicide activity screening; conditions: phytotoxicity rating 0-100, 14 days after application
Method in brief: (§1)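 Sandy loam pots; pre-emerge: sown 1 d pre-spray, surface-watered after, then bottom-watered. Post-emerge: sown 8–21 d before, 2–3 leaf stage, + 0.25% v/v NIS, bottom-watered. Acetone, 187 l/ha track spray, 15–1000 g ai/ha. 0–100 injury score, day 14.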

[2] = system: barnyardgrass (Echinochloa crus-galli, ECHCG); assay: Post-emerge test, greenhouse herbicide activity screening; conditions: post-emerge, 14 days after application, rating scale 0-100
Source text: (§2) A standard greenhouse herbicide activity screening system was used to evaluate the herbicidal efficacy and crop safety of these test compounds. Seven broadleaf weed species including redroot pigweed (Amaranthus retroflexus, AMARE, velvetleaf (Abutilon theophrasti, ABUTH), sicklepod (Cassia obtusifolia, CASOB), ivyleaf morningglory (Ipomoea hederacea, IPOHE), lambsquarters (Chenopodium album, CHEAL), common ragweed (Ambrosia artemisizfolia L., AMBEL), and cocklebur (Xanthium strumarium, XANST) were used as test species. Four grass weed species including green foxtail (Setaria viridis, SETVI), barnyardgrass (Echinochloa crus-galli, ECHCG), johnsongrass (Sorghum halepense, SORHA), and large crabgrass (Digitaria sanguinalis, DIGSA) were also used. In addition, three crop species, field corn (Zea mays L., var. Dekalb 535, CORN), soybean (Glycine max L., var. Pella 86, SOY), and is upland rice (Oryza sp., var. Tebonnet, RICE) were included.
(§3) All plants were grown in 10 cm square plastic pots which were filled with a sandy loam soil mix. For pre-emerge tests, seeds were planted one day prior to application of the test compounds. For post-emerge tests, seeds were planted 8-21 days prior to the test to allow emergence and good foliage development prior to application of the test substances. At the time of the post-emerge application, plants of all species were usually at the 2-3 leaf stage of development.
(§4) All test compounds Were dissolved in acetone and applied to the test units in a volume of 187 l /ha. Test materials were applied at rates ranging from 15 g ai/ha to 1000 g ai/ha using a track sprayer equipped with a TJ8001E even flow flat fan spray nozzle. Plants were arranged on a shelf so that the top of the canopy (post-emerge) or top of the soil surface (pre-emerge) was 40-45 cm below the nozzle. Pressurized air was used to force the test solution through the nozzle as it was mechanically advanced (via electrically driven chain drive) over the top of all test plants/pots. This application simulates a typical commercial field herbicide application.
(§5) In the post-emerge test, a commercial non-ionic surfactant was also included (0.25% v/v) to enhance wetting of the leaf surfaces of target plants. Immediately after application, test units of the pre-emerge applications were watered at the soil surface to incorporate the test materials. Subsequently, these test units were bottom-watered. Post-emerge test units were always bottom-watered.
(§6) At 14 days after application of the test materials, phytotoxicity ratings were recorded. A rating scale of 0-100 was used as previously described in Research Methods in Weed Science, 2nd edition, B. Truelove, Ed., Southern Weed Science Society, Auburn University, Auburn, Ala. 1977. Briefly, “0” corresponds to no damage and “100” corresponds to complete death of all plants in the test unit. This scale was used both to determine efficacy against weed species and damage to crop species. Herbicide activity data for various compounds of this invention, which are shown by compound No. in Tables 1-8, are shown in Tables 11 and 12.

[3] = system: sicklepod (Cassia obtusifolia, CASOB); assay: as above; conditions: post-emerge, 14 days after application, rating scale 0-100
Source text: as §2, §3, §4, §5, §6

[4] = system: velvetleaf (Abutilon theophrasti, ABUTH); assay: as above; conditions: post-emerge, 14 days after application, rating scale 0-100
Source text: as §2, §3, §4, §5, §6

[5] = system: large crabgrass (Digitaria sanguinalis, DIGSA); assay: as above; conditions: post-emerge, 14 days after application, rating scale 0-100
Source text: as §2, §3, §4, §5, §6

[6] = system: ivyleaf morningglory (Ipomoea hederacea, IPOHE); assay: as above; conditions: post-emerge, 14 days after application, rating scale 0-100
Source text: as §2, §3, §4, §5, §6

[7] = system: lambsquarters (Chenopodium album, CHEAL); assay: as above; conditions: post-emerge, 14 days after application, rating scale 0-100
Source text: as §2, §3, §4, §5, §6

[8] = system: redroot pigweed (Amaranthus retroflexus, AMARE); assay: as above; conditions: post-emerge, 14 days after application
Source text: as §2, §3, §4, §5, §6

[9] = system: green foxtail (Setaria viridis, SETVI); assay: as above; conditions: post-emerge, 14 days after application, rating scale 0-100
Source text: as §2, §3, §4, §5, §6

[10] = system: field corn (Zea mays L., var. Dekalb 535, CORN); assay: Post-emerge test, crop safety; conditions: post-emerge, 14 days after application, rating scale 0-100
Method in brief: as §1

[11] = system: upland rice (Oryza sp., var. Tebonnet, RICE); assay: Post-emerge test, crop safety; conditions: post-emerge, 14 days after application, rating scale 0-100
Method in brief: as §1

[12] = system: barnyardgrass (Echinochloa crus-galli, ECHCG); assay: Pre-emerge test, greenhouse herbicide activity screening; conditions: phytotoxicity rating 0-100, 14 days after application
Source text: as §2, §3, §4, §5, §6

[13] = system: sicklepod (Cassia obtusifolia, CASOB); assay: as above; conditions: phytotoxicity rating 0-100, 14 days after application
Source text: as §2, §3, §4, §5, §6

[14] = system: velvetleaf (Abutilon theophrasti, ABUTH); assay: as above; conditions: phytotoxicity rating 0-100, 14 days after application
Source text: as §2, §3, §4, §5, §6

[15] = system: large crabgrass (Digitaria sanguinalis, DIGSA); assay: as above; conditions: phytotoxicity rating 0-100, 14 days after application
Source text: as §2, §3, §4, §5, §6

[16] = system: ivyleaf morningglory (Ipomoea hederacea, IPOHE); assay: as above; conditions: phytotoxicity rating 0-100, 14 days after application
Source text: as §2, §3, §4, §5, §6

[17] = system: lambsquarters (Chenopodium album, CHEAL); assay: as above; conditions: phytotoxicity rating 0-100, 14 days after application
Source text: as §2, §3, §4, §5, §6

[18] = system: green foxtail (Setaria viridis, SETVI); assay: as above; conditions: phytotoxicity rating 0-100, 14 days after application
Source text: as §2, §3, §4, §5, §6

[19] = system: field corn (Zea mays L., var. Dekalb 535, CORN); assay: Pre-emerge test, crop safety; conditions: crop damage rating 0-100, 14 days after application
Method in brief: (§7)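 Plants grown in 10 cm pots of sandy loam mix received acetone-dissolved compounds through a moving flat-fan nozzle. Doses ranged from 15 to 1000 g ai/ha. Pre-emerge pots were seeded one day earlier, post-emerge pots 8–21 days earlier. Fourteen days on, each pot was graded 0–100 for damage.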

[20] = system: upland rice (Oryza sp., var. Tebonnet, RICE); assay: Pre-emerge test, crop safety; conditions: crop damage rating 0-100, 14 days after application
Method in brief: as §7

## COc1c(Cl)cc(F)c(-n2c(=O)cc(C(F)(F)F)n(C)c2=O)c1NC(=O)OCc1ccc(C(C)C)cc1 [4-42]
[1]; 63 g ai/ha
  Pre-emerge Herbicidal Activity AMARE: 30
[1]; 250 g ai/ha
  Pre-emerge Herbicidal Activity AMARE: 90
[2]; 63 g ai/ha
  phytotoxicity rating ECHCG: 0
[2]; 250 g ai/ha
  phytotoxicity rating ECHCG: 10
[3]; 63 g ai/ha
  phytotoxicity rating CASOB: 0
[3]; 250 g ai/ha
  phytotoxicity rating CASOB: 0
[4]; 63 g ai/ha
  phytotoxicity rating ABUTH: 100
[4]; 250 g ai/ha
  phytotoxicity rating ABUTH: 100
[5]; 63 g ai/ha
  phytotoxicity rating DIGSA: 0
[5]; 250 g ai/ha
  phytotoxicity rating DIGSA: 0
[6]; 63 g ai/ha
  phytotoxicity rating IPOHE: 40
[6]; 250 g ai/ha
  phytotoxicity rating IPOHE: 30
[7]; 63 g ai/ha
  phytotoxicity rating CHEAL: 80
[7]; 250 g ai/ha
  phytotoxicity rating CHEAL: 90
[8]; 63 g ai/ha, rating scale 0-100 (0 no damage, 100 complete death)
  phytotoxicity rating AMARE: 75
[8]; 250 g ai/ha, rating scale 0-100
  phytotoxicity rating AMARE: 100
[9]; 63 g ai/ha
  phytotoxicity rating SETVI: 0
[9]; 250 g ai/ha
  phytotoxicity rating SETVI: 0
[10]; 63 g ai/ha
  phytotoxicity rating CORN (crop damage): 0
[10]; 250 g ai/ha
  phytotoxicity rating CORN (crop damage): 0
[11]; 63 g ai/ha
  phytotoxicity rating RICE (crop damage): 0
[11]; 250 g ai/ha
  phytotoxicity rating RICE (crop damage): 0
[12]; 63 g ai/ha
  Pre-emerge Herbicidal Activity ECHCG: 0
[12]; 250 g ai/ha
  Pre-emerge Herbicidal Activity ECHCG: 40
[13]; 63 g ai/ha
  Pre-emerge Herbicidal Activity CASOB: 0
[13]; 250 g ai/ha
  Pre-emerge Herbicidal Activity CASOB: 100
[14]; 63 g ai/ha
  Pre-emerge Herbicidal Activity ABUTH: 60
[14]; 250 g ai/ha
  Pre-emerge Herbicidal Activity ABUTH: 100
[15]; 63 g ai/ha
  Pre-emerge Herbicidal Activity DIGSA: 10
[15]; 250 g ai/ha
  Pre-emerge Herbicidal Activity DIGSA: 60
[16]; 63 g ai/ha
  Pre-emerge Herbicidal Activity IPOHE: 0
[16]; 250 g ai/ha
  Pre-emerge Herbicidal Activity IPOHE: 40
[17]; 63 g ai/ha
  Pre-emerge Herbicidal Activity CHEAL: 40
[17]; 250 g ai/ha
  Pre-emerge Herbicidal Activity CHEAL: 100
[18]; 63 g ai/ha
  Pre-emerge Herbicidal Activity SETVI: 30
[18]; 250 g ai/ha
  Pre-emerge Herbicidal Activity SETVI: 100
[19]; 63 g ai/ha
  Pre-emerge Herbicidal Activity CORN: 0
[19]; 250 g ai/ha
  Pre-emerge Herbicidal Activity CORN: 0
[20]; 63 g ai/ha
  Pre-emerge Herbicidal Activity RICE: 0
[20]; 250 g ai/ha
  Pre-emerge Herbicidal Activity RICE: 0

From patent US6355799B1, “Substituted benzene compounds, process for their preparation, and herbicidal and defoliant compositions containing them” (ISK Americas Incorporated, priority 1997, dated 2002)
